Experiments:
Type in all cases: physicochemical
[1] = Miscibility evaluation: blue light blocking compound dissolved in HEMA and in a silicone hydrogel contact lens composition
[2] = as above; conditions: the higher the value, the greater the miscibility; for miscibility in silicone hydrogel contact lens composition: composition with hydrophilic monomer, first siloxane monomer and second siloxane monomer; for miscibility in HEMA: dissolved in 2-hydroxyethyl methacrylate (HEMA)
Experimental: The blue light blocking compounds of Examples 1 to 3 and Comparative Example 1 are dissolved in 2-hydroxyethyl methacrylate (represented by HEMA in the table, which is also the hydrophilic monomer used to manufacture the ophthalmic device) and a silicone hydrogel contact lens composition for observing the miscibility, and the results are shown in the following TABLE 1. The higher the value in the TABLE 1, the greater the miscibility. The silicone hydrogel contact lens composition used in the miscibility evaluation includes a polymerizable monomer, and the polymerizable monomer includes a hydrophilic monomer, a first siloxane monomer and a second siloxane monomer.

[3] = Blue light absorbance evaluation of ophthalmic devices (absorption spectrum, UV-VIS spectrophotometer SHIMADZU UV-2600); conditions: 380 nm to 460 nm
Description: The above components can be mixed in a specific ratio to form the blue light blocking composition for manufacturing an ophthalmic device. In an embodiment, the blue light blocking composition of the present disclosure may be put into a contact lens mold, and components in the blue light blocking composition undergo a curing reaction (thermal curing reaction or photo curing reaction) through heating or irradiating light to form an ophthalmic device. The heating temperature may be between about 30° C. and about 150° C., and the heating time may be between about 1 hour and 12 hours. In an embodiment, the reaction conditions can be heating at 30-70° C. for 0-2 hours, heating at 70-100° C. for 2-4 hours, and heating at 100-150° C. for 4-12 hours. In an embodiment, a hydration process and/or a sterilization process can be performed after the curing reaction. […]
The ophthalmic devices of Examples 4 to 9 and Comparative Examples 2 and 3 are subjected to a blue light absorbance evaluation. The blue light absorbance is measured by absorption spectrum with UV-VIS spectrophotometer (SHIMADZU UV-2600). The blue light absorbance represents the amount of blue light with a wavelength between 380 nm and 460 nm that are absorbed by silicone hydrogel contact lens.

Row | Structure (SMILES) | miscibility with the silicone hydrogel contact lens compositions (observation) ([1]; addition amount 1.0%) | usable addition amount in silicone hydrogel contact lens composition ([1]; concluded from TABLE 2) | miscibility in silicone hydrogel contact lens composition [2] [%] | miscibility in HEMA [2] [%] | blue light absorbance ([3]; ophthalmic device from silicone hydrogel contact lens composition with 1.5% of the compound) [%] | blue light absorbance ([3]; ophthalmic device from silicone hydrogel contact lens composition with 2% of the compound) [%]
1 | C=CS(=O)(=O)c1cc(OC)c(/N=N/C2C(=O)N(c3ccc(S(=O)(=O)[O-])cc3)N=C2C)cc1C.[Na+] (stereo not drawn) [Comparative Example 1, reference compound] | precipitation occurs | less than 1.0% | 0.1 | 5 |  | 
2 | C=C(C)C(=O)OCCOC(=O)/C(=C/c1ccc(N(C)C)cc1)C(=O)OC [Example 1] |  |  | 4.0 | 25 | 56.1 | 65.3
3 | C=C(C)C(=O)OCCOC(=O)C(=Cc1ccc(N(C)C)cc1)C(=O)OCCOC(=O)C(=C)C [Example 2] |  |  | 4.6 | 67 |  | 
4 | C=C(C)C(=O)OCCNC(=O)/C(=C/c1ccc(N(C)C)cc1)C(=O)OC [Example 3] |  |  | 1.5 | 47 |  | 

Source: patent publication US20250382439A1, “BLUE LIGHT BLOCKING COMPOUND, BLUE LIGHT BLOCKING COMPOSITION, USE OF BLUE LIGHT BLOCKING COMPOUND, USE OF BLUE LIGHT BLOCKING COMPOSITION AND METHOD FOR PREPARING BLUE LIGHT BLOCKING COMPOUND” (Visco Vision Inc., priority 2024, published 2025)
